Measurements from ChEMBL document CHEMBL1201862, “PubChem BioAssay data set” (2004).
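Grown in 96-well plates, cells were treated for 48 hours with each compound at five concentrations. Insufficient inhibition: endpoint recorded as highest concentration tested. GI50 marks 50% less growth.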 Calls of active or inactive are those of the source. No stated cut-off is given here; in the data, active = GI50 up to about 1.1 µM and inactive = higher.

Key:
Test in all cases: inhibition of tumour cell growth, NCI panel, 48 h
[1] = test system: 786-0
[2] = test system: COLO 205
[3] = test system: HCT-15
[4] = test system: HOP-62
[5] = test system: HT-29
[6] = test system: M14
[7] = test system: M19-MEL
[8] = test system: OVCAR-4
[9] = test system: OVCAR-8
[10] = test system: RPMI-8226
[11] = test system: SF-539
[12] = test system: SK-MEL-5
[13] = test system: TK-10
[14] = test system: UACC-62
[15] = test system: Malme-3M
[16] = test system: UO-31
[17] = test system: DU-145
[18] = test system: MDA-MB-231
[19] = test system: NCI-H226
[20] = test system: SR

Row | SMILES | GI50 [1] | GI50 [2] | GI50 [3] | GI50 [4] | GI50 [5] | GI50 [6] | GI50 [7] | GI50 [8] | GI50 [9] | GI50 [10] | GI50 [11] | GI50 [12] | GI50 [13] | GI50 [14] | GI50 [15] | GI50 [16] | GI50 [17] | GI50 [18] | GI50 [19] | GI50 [20]
1 | O=C1C(c2ccccc2)=C(c2ccccc2)[C@H](c2ccccc2)[C@]1(Cc1nnn(-c2ccc([N+](=O)[O-])cc2)c1N1CCOCC1)c1ccccc1 | > 37.5 µM (inactive) | > 37.5 µM (inactive) | > 37.5 µM | > 37.5 µM (inactive) | > 37.5 µM (inactive) | > 37.5 µM (inactive) | > 37.5 µM (inactive) | 13.7 µM (inactive) | > 37.5 µM (inactive) | > 37.5 µM (inactive) | > 37.5 µM (inactive) | 19.1 µM (inactive) | > 37.5 µM (inactive) | > 37.5 µM (inactive) |  |  |  |  |  | 
2 | COc1cc2c(cc1OC)[C@]1(O)C(=O)c3ccc4c(c3O[C@@H]1CO2)C[C@H](C(C)(C)O)O4 | > 100 µM (inactive) | > 100 µM (inactive) |  | > 100 µM (inactive) | > 100 µM (inactive) | > 100 µM (inactive) | > 100 µM (inactive) |  | 85.3 µM (inactive) | 36.5 µM (inactive) | > 100 µM (inactive) |  | > 100 µM (inactive) | > 100 µM (inactive) | 8.89 µM (inactive) | 7.29 µM (inactive) |  |  |  | 
3 | CC(NC1=NCCO1)c1ccccc1Cl (configuration not stated) | > 100 µM (inactive) | > 100 µM (inactive) | > 100 µM | > 100 µM (inactive) | 25.1 µM (inactive) | > 100 µM (inactive) |  | > 100 µM (inactive) | > 100 µM (inactive) | > 100 µM (inactive) | 27.2 µM (inactive) | > 100 µM (inactive) | > 100 µM (inactive) | > 100 µM (inactive) | > 100 µM (inactive) | > 100 µM (inactive) | > 100 µM (inactive) | > 100 µM (inactive) | 58.1 µM (inactive) | > 100 µM (inactive)
4 | Cc1ccc2c(O)cc(-c3ccc(C)s3)nc2n1 | 0.443 µM (active) | 0.459 µM (active) | 0.0863 µM | 1.07 µM (active) | 0.526 µM (active) | 0.303 µM (active) |  | 12.7 µM (inactive) | 0.652 µM (active) | 0.248 µM (active) | 0.325 µM (active) | 0.139 µM (active) | 19.3 µM (inactive) | 0.35 µM (active) | 0.94 µM (active) | 0.439 µM (active) | 0.993 µM (active) | 1.73 µM (inactive) | 0.357 µM (active) | 0.0893 µM (active)
5 | OCC1OC(O[C@H]2CN3[C@H](O)[C@@H](O)[C@H](O)[C@H]3C2O)C(O)C(O)C1O (some centres not stated) | > 100 µM (inactive) | > 100 µM (inactive) | > 100 µM | > 100 µM (inactive) | > 100 µM (inactive) | > 100 µM (inactive) |  | > 100 µM (inactive) | > 100 µM (inactive) | > 100 µM (inactive) | > 100 µM (inactive) | > 100 µM (inactive) | > 100 µM (inactive) | > 100 µM (inactive) | > 100 µM (inactive) | > 100 µM (inactive) | > 100 µM (inactive) | > 100 µM (inactive) | > 100 µM (inactive) | > 100 µM (inactive)
6 | CC(Oc1ccc(OCC2CCCCC2)cc1)C(=O)OCC(=O)c1ccc(-c2ccccc2)cc1 (configuration not stated) | > 100 µM (inactive) |  | > 100 µM |  | > 100 µM (inactive) | > 100 µM (inactive) | > 100 µM (inactive) | > 100 µM (inactive) | > 100 µM (inactive) |  | > 100 µM (inactive) | > 100 µM (inactive) | > 100 µM (inactive) | > 100 µM (inactive) | > 100 µM (inactive) | > 100 µM (inactive) |  |  | > 100 µM (inactive) | 
7 | O=C(O)CSc1nnc2c3ccccc3c3ccccc3c2n1 | 56.2 µM (inactive) | > 100 µM (inactive) | 44.5 µM | 46 µM (inactive) | 68.4 µM (inactive) | 47.1 µM (inactive) |  | 45.6 µM (inactive) | 50.4 µM (inactive) | 32.4 µM (inactive) | 52.2 µM (inactive) | 45.9 µM (inactive) | > 100 µM (inactive) | 61.9 µM (inactive) | 30 µM (inactive) | 33.6 µM (inactive) | 57.9 µM (inactive) | 67.3 µM (inactive) | 85.7 µM (inactive) | 31.9 µM (inactive)
8 | COCC(=O)CP(=O)(OC)OC | > 100 µM (inactive) | > 100 µM (inactive) | > 100 µM | > 100 µM (inactive) | > 100 µM (inactive) | > 100 µM (inactive) | > 100 µM (inactive) | > 100 µM (inactive) | > 100 µM (inactive) | > 100 µM (inactive) | > 100 µM (inactive) | > 100 µM (inactive) | > 100 µM (inactive) | > 100 µM (inactive) | > 100 µM (inactive) | > 100 µM (inactive) |  |  |  | 
9 | COC(=O)/C=C/c1ccc2c(c1)[C@H](C(=O)OC)[C@@H](c1ccc(O)cc1)O2 | 30 µM (inactive) | 25.2 µM (inactive) | 5.02 µM | 35.8 µM (inactive) | 27.9 µM (inactive) | 10.5 µM (inactive) |  | 29.3 µM (inactive) | 37 µM (inactive) | > 10 µM (inactive) | 44.7 µM (inactive) | 14.2 µM (inactive) | 41.4 µM (inactive) | 20 µM (inactive) | 20.6 µM (inactive) | 28.5 µM (inactive) | 71.3 µM (inactive) | 14.8 µM (inactive) | 55.8 µM (inactive) | 6.62 µM (inactive)
10 | CC(=O)C1(c2ccccc2)CCN(Cn2sc3nc(C)cc(C)c3c2=O)CC1 | 16.9 µM (inactive) | 17.6 µM (inactive) | 26.5 µM | 34.8 µM (inactive) | 19.1 µM (inactive) | 25.8 µM (inactive) |  | 21.9 µM (inactive) | 27.4 µM (inactive) | 56.9 µM (inactive) | 22.5 µM (inactive) | 30.1 µM (inactive) | 20.1 µM (inactive) | 28.9 µM (inactive) | 20.3 µM (inactive) | 16.5 µM (inactive) | 31.4 µM (inactive) | 33 µM (inactive) | 97.5 µM (inactive) | 32.1 µM (inactive)
11 | O=C(NCc1cccnc1)C(=O)NCc1cccnc1 | > 100 µM (inactive) | > 100 µM (inactive) | > 100 µM | > 100 µM (inactive) | > 100 µM (inactive) | > 100 µM (inactive) |  | > 100 µM (inactive) | > 100 µM (inactive) | > 100 µM (inactive) | > 100 µM (inactive) | > 100 µM (inactive) | > 100 µM (inactive) | > 100 µM (inactive) | > 100 µM (inactive) | > 100 µM (inactive) | > 100 µM (inactive) | > 100 µM (inactive) | > 100 µM (inactive) | 81.1 µM (inactive)
12 | COC(=O)[C@H](CCSC)NC(=O)c1ccc(CNC(=O)/C=C/c2cccc(Oc3ccccc3)c2)cc1 | > 100 µM (inactive) | 21.9 µM (inactive) | > 62.8 µM | > 100 µM (inactive) | > 100 µM (inactive) | 13.5 µM (inactive) |  | 33.6 µM (inactive) | > 100 µM (inactive) | 45.5 µM (inactive) | > 74.3 µM (inactive) | 15.6 µM (inactive) | > 45.3 µM (inactive) | 18.2 µM (inactive) | 18.8 µM (inactive) | 42.9 µM (inactive) | > 100 µM (inactive) | 21.3 µM (inactive) | > 23.8 µM (inactive) | 19.7 µM (inactive)
13 | CNC(=O)OCc1c(COC(=O)NC)c(-c2ccc(-c3ccccc3)cc2)n(C)c1C | 1.56 µM (inactive) | 4.32 µM (inactive) | 2.17 µM | 2.79 µM (inactive) | 2.7 µM (inactive) | 1.47 µM (inactive) |  | 3.08 µM (inactive) | 2.26 µM (inactive) | 0.467 µM (active) | 1.86 µM (inactive) | 3.1 µM (inactive) | 3.15 µM (inactive) | 1.64 µM (inactive) | 1.15 µM (inactive) | 1.18 µM (inactive) | 2.18 µM (inactive) | 2.69 µM (inactive) | 7.98 µM (inactive) | 0.116 µM (active)
14 | NS(=O)(=O)c1nnc(NC(=O)CCC(=O)O)s1 | > 100 µM (inactive) | > 100 µM (inactive) | > 100 µM | > 100 µM (inactive) | > 100 µM (inactive) | > 100 µM (inactive) |  | > 100 µM (inactive) | > 100 µM (inactive) | > 100 µM (inactive) | > 100 µM (inactive) | > 100 µM (inactive) | > 100 µM (inactive) | > 100 µM (inactive) | > 100 µM (inactive) | > 100 µM (inactive) | > 100 µM (inactive) | > 100 µM (inactive) | > 100 µM (inactive) | > 100 µM (inactive)
15 | CC1=C(C(=O)NCc2ccccc2)C(c2ccc([N+](=O)[O-])cc2)C(C(=O)NCc2ccccc2)=C(C)N1 | 44.2 µM (inactive) | 29.2 µM (inactive) | 45.4 µM | > 100 µM (inactive) | 18.1 µM (inactive) | 21.8 µM (inactive) | 21.3 µM (inactive) | 17.4 µM (inactive) | 39.8 µM (inactive) |  | 66.4 µM (inactive) | 38.5 µM (inactive) | 42.8 µM (inactive) | 16.8 µM (inactive) | 67.5 µM (inactive) | 20.6 µM (inactive) |  |  | 31.8 µM (inactive) | 
16 | CC(C)NC(=O)OCc1c(COC(=O)NC(C)C)c(-c2ccc[n+](COC(=O)Cc3ccccc3)c2)n2c1CCC2 | 17.3 µM (inactive) | 41.7 µM (inactive) | 55.5 µM | 31.7 µM (inactive) | 26.1 µM (inactive) | 40.2 µM (inactive) |  | 25 µM (inactive) | 37.8 µM (inactive) | 23.6 µM (inactive) | 34.5 µM (inactive) | 33.4 µM (inactive) | 45 µM (inactive) | 17 µM (inactive) | 49 µM (inactive) | 27.5 µM (inactive) | 25.4 µM (inactive) | 26.2 µM (inactive) | 77.3 µM (inactive) | 3.15 µM (inactive)
